Tested on: HeLa cells
Test: CFTR protein expression assay in HeLa cells (LNPs of Example 2, immunofluorescence)
Format: cell-based, Human
Conditions: compared to buffer (PBS) control, 5 h transfection, 24 h incubation, N=4 wells
Experimental: Lipid nanoparticles were prepared using ethanol drop nanoprecipitation followed by solvent exchange into suitable aqueous buffer using dialysis. An exemplary lipid nanoparticle composition can be prepared by a process where lipids are dissolved in ethanol at a concentration of 12.5 mM and molar ratios of 33:15:11:39.5:1.5 (e.g., ionizable lipid:SA46:phospholipid:cholesterol:PL1). Lipid to mRNA is maintained at a N/P ratio of 4.9. Then mRNA is diluted with 25 mM sodium acetate (pH 5.0) and combined with the lipid mixture at a volume ratio of 3:1 (aqueous: ethanol). Resulting formulations are dialyzed against 20 mM tris/8% sucrose/70 mM sodium chloride (pH 7.4) at a volume of 300 times that of the primary product using Slide-A-Lyzer dialysis cassettes (Thermo Scientific, Rockford, IL, USA) with a molecular cutoff of 10 KDa for at least 18 h. The first dialysis is carried out at room temperature in a digital orbital shaker (VWR, Radnor, PA, USA) at 85 rpm for 3 h and then dialyzed overnight at 4° C. Formulations are concentrated using Amicon ultra-centrifugal filters (EMD Millipore, Billerica, MA, USA), passed through a 0.22-μm filter and stored at 4° C. until use. Lipid nanoparticle solutions are typically adjusted to specific mRNA concentrations between 0.1 and 1 mg/mL. LNPs were prepared according to Example 2. To evaluate LNP cellular uptake and protein expression in vitro, HeLa cells from ATCC.org (ATCC CCL-2) are used. The cells are cultured in complete Minimum Essential Medium (MEM) and are plated in 96 well Cell Carrier Ultra plate with PDL coated surface (PerkinElmer) prior to running an experiment. Buffer control (PBS) and LNPs encapsulating cystic fibrosis transmembrane conductance regulator (CFTR) mRNA were dosed with MEM media in the absence of serum (N=4 replicate wells). LNP transfected cells were incubated for 5 h, followed by media removal and supplementation with complete MEM media. Cells were further incubated in complete MEM media overnight (24 h). Following 24 hr incubation, the cells were fixed with PFA and processed for immunofluorescence (IF) using an anti-CFTR rabbit monoclonal antibody. Briefly, the cells were permeabilized with 0.5% TX-100 for 10 min, blocked with 3% bovine serum albumin (BSA)+PBST for 1 hr at room temperature, and incubated with primary anti-CFTR monoclonal antibody overnight at 4° C. Following primary antibody incubation, the cells were incubated with Alexa 488 conjugated secondary antibody for 30 min, and stained with DAPI and HCS CellMask Blue stain. Between different incubation steps the cells were either washed with PBS or PBST. Cells were imaged using Opera Phoenix spinning disk confocal microscope (PerkinElmer), and CFTR protein expression was detected using the 488 nm channel. The image analysis was performed in Harmony 4.9, with main analysis output being CFTR intensity per cell. The results shown in Table 3a show fold-change in CFTR signal intensity per cell compared to buffer (PBS) control (nanoparticle composition: IL1:Lipid Amine:DSPC:Chol:PL1). The results shown in Table 3b show fold-change in CFTR signal intensity per cell compared to buffer (PBS) control (nanoparticle composition: IL1:Lipid Amine:DPPC:Chol:PL1).

[1] = LNP IL1:Lipid Amine:DPPC:Chol:PL1 with CFTR mRNA
[2] = LNP IL1:Lipid Amine:DSPC:Chol:PL1 with CFTR mRNA

Row | Compound | Average fold-change in CFTR signal intensity per cell ± standard deviation [1] | Average fold-change in CFTR signal intensity per cell ± standard deviation [2]
1 | CC[C@H](CC[C@@H](C)[C@H]1CC[C@H]2[C@@H]3CC=C4C[C@@H](OC(=O)NCC5(N(C)C)CC5)CC[C@]4(C)[C@H]3CC[C@]12C)C(C)C [SA54, (3S,8S,9S,10R,13R,14S,17R)-17-((2R,5R)-5-Ethyl-6-methylheptan-2-yl)-10,13-dimethyl-2,3,4,7,8,9,10,11,12,13,14,15,16,17-tetradecahydro-1H-cyclopenta[a]phenanthren-3-yl ((1-(dimethylamino)cyclopropyl)methyl)carbamate] | 1.3 ± 0.1 fold-change | 1.5 ± 0.1 fold-change
2 | CC[C@H](CC[C@@H](C)[C@H]1CC[C@H]2[C@@H]3CC=C4C[C@@H](OC(=O)NCC(C)(C)N)CC[C@]4(C)[C@H]3CC[C@]12C)C(C)C.Cl [SA55, (3S,8S,9S,10R,13R,14S,17R)-17-((2R,5R)-5-Ethyl-6-methylheptan-2-yl)-10,13-dimethyl-2,3,4,7,8,9,10,11,12,13,14,15,16,17-tetradecahydro-1H-cyclopenta[a]phenanthren-3-yl (2-amino-2-methylpropyl)carbamate Hydrochloride] | 12.1 ± 0.7 fold-change | 4.9 ± 0.2 fold-change
3 | CC[C@H](CC[C@@H](C)[C@H]1CC[C@H]2[C@@H]3CC=C4C[C@@H](OC(=O)NCCCCN(C)C)CC[C@]4(C)[C@H]3CC[C@]12C)C(C)C [SA47, (3S,8S,9S,10R,13R,14S,17R)-17-((2R,5R)-5-Ethyl-6-methylheptan-2-yl)-10,13-dimethyl-2,3,4,7,8,9,10,11,12,13,14,15,16,17-tetradecahydro-1H-cyclopenta[a]phenanthren-3-yl (4-(dimethylamino)butyl)carbamate] | 10.9 ± 0.4 fold-change | 4.6 ± 0.4 fold-change
4 | CC[C@H](CC[C@@H](C)[C@H]1CC[C@H]2[C@@H]3CC=C4C[C@@H](OC(=O)NCCN(CCO)CCO)CC[C@]4(C)[C@H]3CC[C@]12C)C(C)C [SA48, (3S,8S,9S,10R,13R,14S,17R)-17-((2R,5R)-5-Ethyl-6-methylheptan-2-yl)-10,13-dimethyl-2,3,4,7,8,9,10,11,12,13,14,15,16,17-tetradecahydro-1H-cyclopenta[a]phenanthren-3-yl (2-(bis(2-hydroxyethyl)amino)ethyl)carbamate] | 5.3 ± 1.0 fold-change | 4.4 ± 0.3 fold-change
5 | CC[C@H](CC[C@@H](C)[C@H]1CC[C@H]2[C@@H]3CC=C4C[C@@H](OC(=O)NCCOCCN(C)C)CC[C@]4(C)[C@H]3CC[C@]12C)C(C)C [SA49, (3S,8S,9S,10R,13R,14S,17R)-17-((2R,5R)-5-Ethyl-6-methylheptan-2-yl)-10,13-dimethyl-2,3,4,7,8,9,10,11,12,13,14,15,16,17-tetradecahydro-1H-cyclopenta[a]phenanthren-3-yl (2-(2-(dimethylamino)ethoxy)ethyl)carbamate] | 1 ± 0.0 fold-change | 1.1 ± 0.0 fold-change
6 | CC[C@H](CC[C@@H](C)[C@H]1CC[C@H]2[C@@H]3CC=C4C[C@@H](OC(=O)NCC(C)(C)N(C)C)CC[C@]4(C)[C@H]3CC[C@]12C)C(C)C [SA53, (3S,8S,9S,10R,13R,14S,17R)-17-((2R,5R)-5-Ethyl-6-methylheptan-2-yl)-10,13-dimethyl-2,3,4,7,8,9,10,11,12,13,14,15,16,17-tetradecahydro-1H-cyclopenta[a]phenanthren-3-yl (2-(dimethylamino)-2-methylpropyl)carbamate] | 13.0 ± 1.2 fold-change | 4.4 ± 0.8 fold-change
7 | CC[C@H](CC[C@@H](C)[C@H]1CC[C@H]2[C@@H]3CC=C4C[C@@H](OC(=O)NCCCN(C)C)CC[C@]4(C)[C@H]3CC[C@]12C)C(C)C [SA46, (3S,8S,9S,10R,13R,14S,17R)-17-((2R,5R)-5-Ethyl-6-methylheptan-2-yl)-10,13-dimethyl-2,3,4,7,8,9,10,11,12,13,14,15,16,17-tetradecahydro-1H-cyclopenta[a]phenanthren-3-yl (3-(dimethylamino)propyl)carbamate] | 10.2 ± 0.2 fold-change | 4.7 ± 0.2 fold-change
